For three compounds, IC50 results are on record in BindingDB's records for doi:10.1021/ml1001536 (2010).

This assay in a line: Antagonist activity at CCR5 in IL-10 stimulated human PBMC cells assessed as MIP-1beta induced chemotaxis.

By IC50 is commonly meant the point on the concentration scale where inhibition reaches its midpoint. For the compound `Cc1ncnc(C)c1C(=O)N1CCC(C)(N2CCN(C3CCc4cc(C(F)(F)F)ccc43)[C@@H](C)C2)CC1` (stereo partly drawn) [4,6-Dimethyl-5-[(4-methyl-4-{(3S)-3-methyl-4-[5-(trifluoromethyl)-2,3-dihydro-1H-inden-1-yl]piperazin-1-yl}piperidin-1-yl)carbonyl]pyrimidine], the IC50 is 1.2 nM.

As to `Cc1ncnc(C)c1C(=O)N1CCC(C)(N2CCN(C3CCc4cc(Br)ccc43)[C@@H](C)C2)CC1` (stereo partly drawn) [5-({4-[(3S)-4-(5-Bromo-2,3-dihydro-1H-inden-1-yl)-3-methylpiperazin-1-yl]-4-methylpiperidin-1-yl}carbonyl)-4,6-dimethylpyrimidine], the IC50 stood at 1.1 nM. Under `CO[C@@H]1Cc2cc(C(F)(F)F)ccc2[C@H]1N1CCN(C2(C)CCN(C(=O)c3c(C)ncnc3C)CC2)C[C@@H]1C` [5-[(4-(3S)-4-[(1R,2R)-2-methoxy-5-(trifluoromethyl)-2,3-dihydro-1H-inden-1-yl]-3-methylpiperazin-1-yl-4-methylpiperidin-1-yl)carbonyl]-4,6-dimethylpyrimidine] stands 3.5 nM.
